What was measured:
[1] = target: T1, Amine oxidase [flavin-containing] B (Bos taurus, UniProt P56560); experiment: MAO Inhibition Assay; conditions: pH 7.4; 38 °C
T1 sequence (P56560 whole entry): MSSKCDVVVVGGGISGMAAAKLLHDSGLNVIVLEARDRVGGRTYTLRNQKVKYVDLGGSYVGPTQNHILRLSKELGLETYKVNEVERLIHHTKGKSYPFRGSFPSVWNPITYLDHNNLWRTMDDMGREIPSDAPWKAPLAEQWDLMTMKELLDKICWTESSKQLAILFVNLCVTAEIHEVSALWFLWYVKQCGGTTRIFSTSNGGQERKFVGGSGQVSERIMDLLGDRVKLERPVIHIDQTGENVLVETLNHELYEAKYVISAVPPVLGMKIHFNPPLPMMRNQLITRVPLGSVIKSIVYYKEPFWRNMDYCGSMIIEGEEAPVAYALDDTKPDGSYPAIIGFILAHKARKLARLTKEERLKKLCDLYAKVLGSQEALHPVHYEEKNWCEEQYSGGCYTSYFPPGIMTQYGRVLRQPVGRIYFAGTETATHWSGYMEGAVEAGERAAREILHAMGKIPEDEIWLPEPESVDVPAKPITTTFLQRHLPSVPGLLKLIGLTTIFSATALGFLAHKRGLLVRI
Description: (§1) MAO A and MAO B activities were determined […] using kynuramine as substrates. Fluorimetric measurements were recorded with a Perkin-Elmer LS 50B spectrofluorimeter. Dixon plots were used to estimate the inhibition constant (Ki) of the inhibitors. The data are the mean values of three or more experiments performed in duplicate.

[2] = target: T2, Amine oxidase [flavin-containing] A (Bos taurus, UniProt P21398); experiment: MAO Inhibition Assay; conditions: pH 7.4; 38 °C
T2 sequence (P21398 whole entry): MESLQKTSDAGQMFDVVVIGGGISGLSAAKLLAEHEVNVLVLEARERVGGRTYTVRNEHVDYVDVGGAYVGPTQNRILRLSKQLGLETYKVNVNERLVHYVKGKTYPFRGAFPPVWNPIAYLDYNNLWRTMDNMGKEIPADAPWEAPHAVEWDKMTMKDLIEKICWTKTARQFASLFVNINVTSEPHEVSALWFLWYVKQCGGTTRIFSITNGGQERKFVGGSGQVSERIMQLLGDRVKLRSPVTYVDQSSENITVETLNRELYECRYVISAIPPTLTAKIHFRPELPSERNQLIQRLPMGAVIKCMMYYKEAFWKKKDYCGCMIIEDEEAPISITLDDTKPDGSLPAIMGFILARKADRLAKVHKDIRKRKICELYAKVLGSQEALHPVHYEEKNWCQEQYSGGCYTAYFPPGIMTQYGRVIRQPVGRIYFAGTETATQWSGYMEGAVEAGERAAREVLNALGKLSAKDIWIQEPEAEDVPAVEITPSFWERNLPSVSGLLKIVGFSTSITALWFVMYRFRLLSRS
Description: as §1

| Ki [1] [nM] | Ki [2] [nM] | Compound |
| --- | --- | --- |
| 1.5 |  | Cc1ccc(C2=NN(C(N)=S)C(c3ccc(Cl)cc3)C2)cc1 (configuration not stated) [5-(4-chlorophenyl)-3-(4-methylphenyl)-4,5-dihydro-1H-pyrazole-1-carbothioamide] |
|  | 5 | NC(=S)N1N=C(c2ccc(F)cc2)C[C@H]1c1ccc(Cl)cc1 [(5S)-5-(4-chlorophenyl)-3-(4-fluorophenyl)-4,5-dihydro-1H-pyrazole-1-carbothioamide] |
